Data set [1] can be described thus: Test of neutralization (weight of amine necessary for neutralizing 100 g of oleic acid). Format: physicochemical. The following applies: for Amount necessary for neutralizing 100 g of oleic acid: weight of amine per 100 g of oleic acid. Here is the method: The neutralizing capacity is evaluated by determining the weight of amine (in grams) necessary for neutralizing 100 g of oleic acid. In this example, the neutralizing capacities of the following products are compared: • Amine (1) alone: monoethanolamine (MEoA); • Amine (2) alone: n-heptyldiethanolamine ([…]); • Mixture of amine (1)+amine (2): 70% by weight of MEoA+30% by weight of […].

For data set [2], the system named is Pseudomonas aeruginosa and Staphylococcus aureus. Briefly: Test of bacterial proliferation, bactericidal and/or bacteriostatic activity according to standard NF EN 1040. Further details: key: +: low degree of reduction; ++++: high degree of reduction. In kind it is cell-based. The following applies: surviving bacteria counted after 5 minutes contact at 20° C. Here is the method: A test is carried out in order to evaluate the bactericidal and/or bacteriostatic activity of a sample of the composition of the invention, according to the standard NF EN 1040 (April 2006). A sample of a composition as it is (maximum concentration of the test: 80%) and/or diluted with water is added to a test suspension of bacteria (Pseudomonas aeruginosa and Staphylococcus aureus). The mixture is maintained at 20° C. for 5 minutes. An aliquote portion is removed at the end of this contact time; the bactericidal and/or bacteriostatic activity in this withdrawal is immediately neutralized or suppressed according to a validated method. The method used preferably is the dilution-neutralization method. Filtration over a membrane is used when it is not possible to find a suitable neutralizer. The surviving bacteria in each sample are counted, which makes it possible to calculate the degree of reduction, denoted by “+” (low degree of reduction) to “++++” (high degree of reduction) in table 2 below: […]

Data set [3] is classed as physicochemical. The text has this:
In this example, the following two amines are considered: • Amine (1) alone: methyldiethanolamine (MDEoA); • Amine (2) alone: n-heptyldiethanolamine (C7DEoA).
The appended FIG. 1 represents a ternary phase diagram between these 2 amines and water. The percentages are expressed by weight. The miscible mixtures are denoted by points (●), the immiscible mixtures are denoted by crosses (X).
The C7DEoA/water binary mixture is not miscible in all proportions. There is immiscibility when the C7DEoA is found in an amount of greater than 50%. In the area of immiscibility (amount of C7DEoA greater than 50%), the MDEoA acts as a coupling agent (co-solvent) when it is present in a content of greater than 15%.

With `NCCO` [MEoA, monoethanolamine, reference compound], the “Amount necessary for neutralizing 100 g of oleic acid” value in data set [1] was found to be 6.8 g. The Degree of reduction result in data set [2] is on record as “+”.
For the compound “n-heptyldiethanolamine [Composition C7DEoA]”, the “neutralizing capacity (in words)” value in data set [1] (oleic acid neutralization) was “much lower”. For the same compound, the “Amount necessary for neutralizing 100 g of oleic acid” value in data set [1] amounted to 36 g. Besides, the “amount of C7DEoA in C7DEoA/water binary mixture at which there is immiscibility” value in data set [3] is “greater than 50%”. The Degree of reduction result in data set [2] was “++++”.

These data come from US9232789B2, “Biostatic neutralizing composition for aqueous fluids” (ARKEMA FRANCE, priority 2010, dated 2016).
